Laboratory results from ChEMBL document CHEMBL5724806, “Unraveling interindividual differences and functional consequences of gut microbial metabolism of immunosuppressants” (2024).

Legend:
Assay type in all cases: ADME
[1] = The drug is tested on Lactobacillus paracasei strain: ATCC27092 for biotransformation under microaerobic condition. The drug concentrations were measured over 6 timepoints collected between 0 and 12 hours of incubation by liquid-chromatography-coupled mass spectrometry (LC–MS); set-up: dose 5 uM, timepoint 0, 1.5, 3, 6, 9, 12 hours; details: lacticaseibacillus paracasei, 5 µM
[2] = (§1) The drug is tested on the gut metagenome community of A-03 with ENA study accession number: PRJEB31790 for biotransformation under anaerobic condition. The drug concentrations were measured over 7 timepoints collected between 0 and 12 hours of incubation by liquid-chromatography-coupled mass spectrometry (LC–MS); set-up: dose 5 uM, timepoint 0, 0.75, 1.5, 3, 6, 9, 12 hours; details: 5 µM
[3] = as §1, with “T-03” for “A-03”, “microaerobic” for “anaerobic”; set-up: dose 5 uM, timepoint 0, 0.75, 1.5, 3, 6, 9, 12 hours; details: 5 µM
[4] = as §1, with “P-03” for “A-03”, “microaerobic” for “anaerobic”; set-up: dose 5 uM, timepoint 0, 0.75, 1.5, 3, 6, 9, 12 hours; details: 5 µM
[5] = The drug is tested on Lactobacillus paracasei strain: ATCC27092 for biotransformation under anaerobic condition. The drug concentrations were measured over 6 timepoints collected between 0 and 12 hours of incubation by liquid-chromatography-coupled mass spectrometry (LC–MS); set-up: dose 5 uM, timepoint 0, 1.5, 3, 6, 9, 12 hours; details: lacticaseibacillus paracasei, 5 µM
[6] = The drug is tested on Streptococcus salivarius strain: DSM20560 for biotransformation under anaerobic condition. The drug concentrations were measured over 6 timepoints collected between 0 and 12 hours of incubation by liquid-chromatography-coupled mass spectrometry (LC–MS); set-up: dose 5 uM, timepoint 0, 1.5, 3, 6, 9, 12 hours; details: 5 µM
[7] = The drug is tested on Lactobacillus reuteri strain: DSM20016 for biotransformation under anaerobic condition. The drug concentrations were measured over 6 timepoints collected between 0 and 12 hours of incubation by liquid-chromatography-coupled mass spectrometry (LC–MS); set-up: dose 5 uM, timepoint 0, 1.5, 3, 6, 9, 12 hours; details: limosilactobacillus reuteri, 5 µM
[8] = The drug is tested on Alloscardovia omnicolens strain: DSM21503 for biotransformation under anaerobic condition. The drug concentrations were measured over 6 timepoints collected between 0 and 12 hours of incubation by liquid-chromatography-coupled mass spectrometry (LC–MS); set-up: dose 5 uM, timepoint 0, 1.5, 3, 6, 9, 12 hours; details: 5 µM
[9] = as §1, with “T-05” for “A-03”, “microaerobic” for “anaerobic”; set-up: dose 5 uM, timepoint 0, 0.75, 1.5, 3, 6, 9, 12 hours; details: 5 µM
[10] = as §1, with “T-03” for “A-03”; set-up: dose 5 uM, timepoint 0, 0.75, 1.5, 3, 6, 9, 12 hours; details: 5 µM
[11] = The drug is tested on Lactobacillus ruminis strain: ATCC25644 for biotransformation under microaerobic condition. The drug concentrations were measured over 6 timepoints collected between 0 and 12 hours of incubation by liquid-chromatography-coupled mass spectrometry (LC–MS); set-up: dose 5 uM, timepoint 0, 1.5, 3, 6, 9, 12 hours; details: ligilactobacillus ruminis, 5 µM
[12] = The drug is tested on Actinomyces graevenitzii strain: DSM15540 for biotransformation under microaerobic condition. The drug concentrations were measured over 6 timepoints collected between 0 and 12 hours of incubation by liquid-chromatography-coupled mass spectrometry (LC–MS); set-up: dose 5 uM, timepoint 0, 1.5, 3, 6, 9, 12 hours; details: 5 µM
[13] = The drug is tested on Prevotella copri strain: DSM18205 for biotransformation under anaerobic condition. The drug concentrations were measured over 6 timepoints collected between 0 and 12 hours of incubation by liquid-chromatography-coupled mass spectrometry (LC–MS); set-up: dose 5 uM, timepoint 0, 1.5, 3, 6, 9, 12 hours; details: segatella copri, 5 µM
[14] = The drug is tested on Bifidobacterium adolescentis strain: DSM20083 for biotransformation under anaerobic condition. The drug concentrations were measured over 6 timepoints collected between 0 and 12 hours of incubation by liquid-chromatography-coupled mass spectrometry (LC–MS); set-up: dose 5 uM, timepoint 0, 1.5, 3, 6, 9, 12 hours; details: 5 µM
[15] = The drug is tested on Coprococcus comes strain: ATCC27758 for biotransformation under anaerobic condition. The drug concentrations were measured over 6 timepoints collected between 0 and 12 hours of incubation by liquid-chromatography-coupled mass spectrometry (LC–MS); set-up: dose 5 uM, timepoint 0, 1.5, 3, 6, 9, 12 hours; details: 5 µM
[16] = The drug is tested on Bifidobacterium longum strain: DSM20088 for biotransformation under anaerobic condition. The drug concentrations were measured over 6 timepoints collected between 0 and 12 hours of incubation by liquid-chromatography-coupled mass spectrometry (LC–MS); set-up: dose 5 uM, timepoint 0, 1.5, 3, 6, 9, 12 hours; details: 5 µM
[17] = The drug is tested on Streptococcus salivarius strain: DSM20560 for biotransformation under microaerobic condition. The drug concentrations were measured over 6 timepoints collected between 0 and 12 hours of incubation by liquid-chromatography-coupled mass spectrometry (LC–MS); set-up: dose 5 uM, timepoint 0, 1.5, 3, 6, 9, 12 hours; details: 5 µM
[18] = as §1, with “A-02” for “A-03”; set-up: dose 5 uM, timepoint 0, 0.75, 1.5, 3, 6, 9, 12 hours; details: 5 µM
[19] = as §1, with “T-04” for “A-03”; set-up: dose 5 uM, timepoint 0, 0.75, 1.5, 3, 6, 9, 12 hours; details: 5 µM
[20] = as §1, with “A-02” for “A-03”, “microaerobic” for “anaerobic”; set-up: dose 5 uM, timepoint 0, 0.75, 1.5, 3, 6, 9, 12 hours; details: 5 µM
[21] = as §1, with “A-10” for “A-03”, “microaerobic” for “anaerobic”; set-up: dose 5 uM, timepoint 0, 0.75, 1.5, 3, 6, 9, 12 hours; details: 5 µM
[22] = The drug is tested on Bacteroides stercoris strain: HM 1036 for biotransformation under anaerobic condition. The drug concentrations were measured over 6 timepoints collected between 0 and 12 hours of incubation by liquid-chromatography-coupled mass spectrometry (LC–MS); set-up: dose 5 uM, timepoint 0, 1.5, 3, 6, 9, 12 hours; details: 5 µM
[23] = The drug is tested on Escherichia coli strain: DSM27469 for biotransformation under microaerobic condition. The drug concentrations were measured over 6 timepoints collected between 0 and 12 hours of incubation by liquid-chromatography-coupled mass spectrometry (LC–MS); set-up: dose 5 uM, timepoint 0, 1.5, 3, 6, 9, 12 hours; details: 5 µM
[24] = as §1, with “A-07” for “A-03”, “microaerobic” for “anaerobic”; set-up: dose 5 uM, timepoint 0, 0.75, 1.5, 3, 6, 9, 12 hours; details: 5 µM
[25] = The drug is tested on Enterococcus faecalis strain: ATCC29212 for biotransformation under anaerobic condition. The drug concentrations were measured over 6 timepoints collected between 0 and 12 hours of incubation by liquid-chromatography-coupled mass spectrometry (LC–MS); set-up: dose 5 uM, timepoint 0, 1.5, 3, 6, 9, 12 hours; details: 5 µM
[26] = The drug is tested on Odoribacter splanchnicus strain: DSM20712 for biotransformation under anaerobic condition. The drug concentrations were measured over 6 timepoints collected between 0 and 12 hours of incubation by liquid-chromatography-coupled mass spectrometry (LC–MS); set-up: dose 5 uM, timepoint 0, 1.5, 3, 6, 9, 12 hours; details: 5 µM
[27] = as §1, with “P-01” for “A-03”, “microaerobic” for “anaerobic”; set-up: dose 5 uM, timepoint 0, 0.75, 1.5, 3, 6, 9, 12 hours; details: 5 µM
[28] = The drug is tested on Escherichia coli strain: DSM27469 for biotransformation under anaerobic condition. The drug concentrations were measured over 6 timepoints collected between 0 and 12 hours of incubation by liquid-chromatography-coupled mass spectrometry (LC–MS); set-up: dose 5 uM, timepoint 0, 1.5, 3, 6, 9, 12 hours; details: 5 µM
[29] = as §1, with “P-01” for “A-03”; set-up: dose 5 uM, timepoint 0, 0.75, 1.5, 3, 6, 9, 12 hours; details: 5 µM
[30] = as §1, with “T-04” for “A-03”, “microaerobic” for “anaerobic”; set-up: dose 5 uM, timepoint 0, 0.75, 1.5, 3, 6, 9, 12 hours; details: 5 µM

SMILES | Bacterial Biotransformation [1] | Bacterial Biotransformation [2] | Bacterial Biotransformation [3] | Bacterial Biotransformation [4] | Bacterial Biotransformation [5] | Bacterial Biotransformation [6] | Bacterial Biotransformation [7] | Bacterial Biotransformation [8] | Bacterial Biotransformation [9] | Bacterial Biotransformation [10] | Bacterial Biotransformation [11] | Bacterial Biotransformation [12] | Bacterial Biotransformation [13] | Bacterial Biotransformation [14] | Bacterial Biotransformation [15] | Bacterial Biotransformation [16] | Bacterial Biotransformation [17] | Bacterial Biotransformation [18] | Bacterial Biotransformation [19] | Bacterial Biotransformation [20] | other results
C[C@H]1C[C@@H]2[C@H]([C@@H](O)C[C@@]3(C)[C@H]2CC[C@]3(O)C(=O)CO)[C@@]2(C)C=CC(=O)C=C12 [METHYLPREDNISOLONE] | Compound NOT metabolized | Compound metabolized | Compound NOT metabolized | Compound metabolized | Compound NOT metabolized | Compound NOT metabolized | Compound NOT metabolized | Compound NOT metabolized | Compound metabolized | Compound NOT metabolized | Compound NOT metabolized | Compound NOT metabolized | Compound NOT metabolized | Compound NOT metabolized | Compound NOT metabolized | Compound NOT metabolized | Compound NOT metabolized | Compound metabolized | Compound NOT metabolized | Compound metabolized | Bacterial Biotransformation [21]: Compound metabolized; Bacterial Biotransformation [22]: Compound NOT metabolized; Bacterial Biotransformation [23]: Compound NOT metabolized; Bacterial Biotransformation [24]: Compound metabolized; Bacterial Biotransformation [25]: Compound NOT metabolized; Bacterial Biotransformation [26]: Compound NOT metabolized; Bacterial Biotransformation [27]: Compound metabolized; Bacterial Biotransformation [28]: Compound NOT metabolized; Bacterial Biotransformation [29]: Compound metabolized; Bacterial Biotransformation [30]: Compound NOT metabolized
COc1c(C)c2c(c(O)c1C/C=C(\C)CCC(=O)OCCN1CCOCC1)C(=O)OC2 [MYCOPHENOLATE MOFETIL] | Compound NOT metabolized | Compound metabolized | Compound metabolized | Compound metabolized | Compound metabolized | Compound metabolized | Compound NOT metabolized | Compound metabolized | Compound metabolized | Compound metabolized | Compound metabolized | Compound metabolized | Compound metabolized | Compound NOT metabolized | Compound NOT metabolized | Compound metabolized | Compound metabolized | Compound metabolized | Compound metabolized | Compound metabolized | Bacterial Biotransformation [21]: Compound metabolized; Bacterial Biotransformation [22]: Compound metabolized; Bacterial Biotransformation [23]: Compound metabolized; Bacterial Biotransformation [24]: Compound metabolized; Bacterial Biotransformation [25]: Compound metabolized; Bacterial Biotransformation [26]: Compound NOT metabolized; Bacterial Biotransformation [27]: Compound metabolized; Bacterial Biotransformation [28]: Compound NOT metabolized; Bacterial Biotransformation [29]: Compound metabolized; Bacterial Biotransformation [30]: Compound metabolized
COc1c(C)c2c(c(O)c1C/C=C(\C)CCC(=O)O)C(=O)OC2 [MYCOPHENOLIC ACID] | Compound NOT metabolized | Compound NOT metabolized | Compound NOT metabolized | Compound NOT metabolized | Compound NOT metabolized | Compound NOT metabolized | Compound NOT metabolized | Compound NOT metabolized | Compound metabolized | Compound NOT metabolized | Compound NOT metabolized | Compound NOT metabolized | Compound NOT metabolized | Compound NOT metabolized | Compound NOT metabolized | Compound NOT metabolized | Compound NOT metabolized | Compound NOT metabolized | Compound NOT metabolized | Compound NOT metabolized | Bacterial Biotransformation [21]: Compound NOT metabolized; Bacterial Biotransformation [22]: Compound NOT metabolized; Bacterial Biotransformation [23]: Compound NOT metabolized; Bacterial Biotransformation [24]: Compound NOT metabolized; Bacterial Biotransformation [25]: Compound NOT metabolized; Bacterial Biotransformation [26]: Compound NOT metabolized; Bacterial Biotransformation [27]: Compound NOT metabolized; Bacterial Biotransformation [28]: Compound NOT metabolized; Bacterial Biotransformation [29]: Compound NOT metabolized; Bacterial Biotransformation [30]: Compound NOT metabolized
